Test results taken from patent US20120157401A1, “METHODS FOR TREATING NEUROFIBROMATOSIS” (PTC Therapeutics, Inc., priority 2009, published 2012).
Read-outs that look alike come from different tables or passages of the source. Blank lines part the entries; values can stand above or below the compound they belong to.

Test system: hypoxia-inducible endogenous VEGF expression
Experiment: Hypoxia-inducible endogenous VEGF expression ELISA in HeLa cells, dose-response EC50 (Table 3)
Assay type: cell-based, human
Description: The ability of the Compounds to modulate hypoxia-inducible endogenous VEGF expression may be analyzed as follows. VEGF protein levels may be monitored by an ELISA assay (R&D Systems). Briefly, HeLa cells may be cultured for 24-48 hours under hypoxic conditions (1% O2, 5% CO2, balanced with nitrogen) in the presence or absence of a Compound. The conditioned media may then be assayed by ELISA, and the concentration of VEGF calculated from the standard ELISA curve of each assay.
A dose-response analysis may be performed using the ELISA assay and conditions described above. The conditions for the dose-response ELISA are analogous to those described above. A series of, e.g., seven different concentrations may be analyzed. In parallel, a dose-response cytotoxicity assay may be performed using Cell Titer Glo (Promega) under the same conditions as the ELISA to ensure that the inhibition of VEGF expression was not due to the cytotoxicity.

[1] = Homo sapiens, HeLa cells, hypoxic conditions (1% O2), 24-48 hours, VEGF in conditioned media, read-out: ELISA EC50
[2] = Homo sapiens, HeLa, read-out: ELISA EC50 μM
[3] = Homo sapiens, HeLa cells, hypoxic conditions (1% O2), VEGF ELISA of conditioned media, read-out: ELISA EC50

Compound: O=C(Oc1ccc(F)cc1)N1CCc2c([nH]c3ccc(Cl)cc23)C1c1ccc(OCCn2ccnc2)cc1 (stereo not shown) [Compound 835]
EC50 [1]: 0.04 to 0.2 µM

Compound: COc1cc(C2c3[nH]c4ccc(Cl)cc4c3CCN2C(=O)Oc2ccccc2)ccc1OCCCn1ccnn1 (stereo not shown) [Compound 1144]
EC50 [1]: 0.04 to 0.2 µM

Compound: O=C(Oc1ccc(F)cc1)N1CCc2c([nH]c3ccc(Cl)cc23)C1c1cccc(OCCCn2cncn2)c1 (stereo not shown) [Compound 1155]
EC50 [1]: 0.04 to 0.2 µM

Compound: COCCN(CCCOc1ccc(C2c3[nH]c4ccc(Cl)cc4c3CCN2C(=O)Oc2ccc(F)cc2)cc1)CCOC (stereo not shown) [Compound 990]
EC50 [2]: < 0.008 µM

Compound: CCC(CO)(CO)COc1ccc(C2c3[nH]c4ccc(Br)cc4c3CCN2C(=O)Oc2ccc(Cl)cc2)cc1 (stereo not shown) [Compound 1358]
EC50 [3]: < 0.008 µM

Compound: O=C(Oc1ccc([N+](=O)[O-])cc1)N1CCc2c([nH]c3ccc(Cl)cc23)C1c1ccc(OCC(O)CO)cc1 (stereo not shown) [Compound 632]
EC50 [1]: 0.008 to 0.04 µM

Compound: COc1ccc(C2c3[nH]c4ccc(Cl)cc4c3CCN2C(=O)Oc2ccc(Cl)cc2)c(F)c1 (stereo not shown) [Compound 1269]
EC50 [1]: < 0.008 µM

Compound: O=C(Oc1ccccc1)N1CCc2c([nH]c3ccc(Cl)cc23)C1c1ccc(OCCCN2CCOCC2)cc1 (stereo not shown) [Compound 1075]
EC50 [2]: 0.008 to 0.04 µM

Compound: O=C(Oc1ccc(Cl)cc1)N1CCc2c([nH]c3ccc(Cl)cc23)[C@@H]1c1ccc(OCCc2cn(C3OC(CO)C(O)C(O)C3O)nn2)cc1 (stereo partly shown) [Compound 1676]
EC50 [3]: > 1 µM

Compound: Cc1ccc(OC(=O)N2CCc3c([nH]c4ccc(Cl)cc34)C2c2ccc(OCC3CCCN(C)C3)cc2)cc1 (stereo not shown) [Compound 951]
EC50 [2]: 0.008 to 0.04 µM

Compound: O=C(Oc1ccc(Cl)cc1)N1CCc2c([nH]c3ccc(Cl)cc23)[C@@H]1c1ccc(OC[C@@H](O)CO)cc1 [Compound 1224]
EC50 [1]: < 0.008 µM

Compound: O=C(Oc1ccc(Cl)cc1)N1CCc2c([nH]c3ccc(Cl)cc23)[C@@H]1c1ccc(OCCCNC2CCCC2)cc1 [Compound 1235]
EC50 [2]: 0.008 to 0.04 µM

Compound: O=C(Oc1ccc(Cl)cc1)N1CCc2c([nH]c3ccc(Cl)cc23)C1c1ccc(OCC(O)Cn2ccnn2)cc1 (stereo not shown) [Compound 973]
EC50 [1]: 0.008 to 0.04 µM

Compound: O=C(Oc1ccc(Cl)cc1)N1CCc2c([nH]c3ccc(Cl)cc23)[C@@H]1c1ccc(OCCC(O)CN(CCO)CCO)cc1 (stereo partly shown) [Compound 1280]
EC50 [2]: 0.008 to 0.04 µM

Compound: COCCN(CCCOc1ccc(C2c3[nH]c4ccc(Cl)cc4c3CCN2C(=O)Oc2ccc(Cl)cc2)cc1)CCOC (stereo not shown) [Compound 916]
EC50 [2]: < 0.008 µM

Compound: O=C(Oc1ccc(Cl)cc1)N1CCc2c([nH]c3ccc(Cl)cc23)C1c1ccc(OCCCCCl)cc1 (stereo not shown) [Compound 660]
EC50 [1]: < 0.008 µM

Compound: O=C(Oc1ccc(Cl)cc1)N1CCc2c([nH]c3ccc(Cl)cc23)[C@@H]1c1ccc(OC2COC2)cc1 [Compound 1701]
EC50 [3]: < 0.008 µM

Compound: CCOC(=O)NCC(O)CCOc1ccc([C@H]2c3[nH]c4ccc(Cl)cc4c3CCN2C(=O)Oc2ccc(Cl)cc2)cc1 (stereo partly shown) [Compound 1636]
EC50 [3]: < 0.008 µM

Compound: COc1ccc(OC(=O)N2CCc3c([nH]c4ccc(Cl)cc34)C2c2ccc(OCCCO)cc2)cc1 (stereo not shown) [Compound 1058]
EC50 [1]: < 0.008 µM

Compound: O=C(Oc1ccccc1Cl)N1CCc2c([nH]c3ccc(Cl)cc23)C1c1ccc(OCC(O)CO)cc1 (stereo not shown) [Compound 628]
EC50 [1]: 0.04 to 0.2 µM

Compound: O=C(Oc1ccc(F)cc1)N1CCc2c([nH]c3ccc(Cl)cc23)C1c1ccc(OCCCCNCCCn2ccnc2)cc1 (stereo not shown) [Compound 741]
EC50 [2]: 0.04 to 0.2 µM

Compound: COc1ccc(OC(=O)N2CCc3c([nH]c4ccc(Cl)cc34)C2c2ccc(OCC3OCCO3)cc2)cc1 (stereo not shown) [Compound 1055]
EC50 [1]: 0.008 to 0.04 µM

Compound: Cc1cc(N)nn1CCOc1ccc(C2c3[nH]c4ccc(Cl)cc4c3CCN2C(=O)Oc2ccc(Cl)cc2)cc1 (stereo not shown) [Compound 1418]
EC50 [3]: 0.008 to 0.04 µM

Compound: CS(=O)(=O)c1ccc(C2c3[nH]c4ccc(Cl)cc4c3CCN2C(=O)Oc2ccc(Cl)cc2)cc1 (stereo not shown) [Compound 360]
EC50 [1]: 0.008 to 0.04 µM

Compound: O=C(Oc1ccccc1)N1CCc2c([nH]c3ccc(Cl)cc23)C1c1ccc(OCC2OCCO2)cc1 (stereo not shown) [Compound 1050]
EC50 [1]: < 0.008 µM

Compound: COCCCNCCCCCCOc1ccc(C2c3[nH]c4ccc(Cl)cc4c3CCN2C(=O)Oc2ccc(F)cc2)cc1 (stereo not shown) [Compound 775]
EC50 [2]: < 0.008 µM

Compound: O=C(Oc1ccc(Cl)cc1)N1CCc2c([nH]c3ccc(Cl)cc23)C1c1ccc(OCCCCCCN2CCCCC2)cc1 (stereo not shown) [Compound 787]
EC50 [2]: < 0.008 µM

Compound: O=C(Oc1ccc(Cl)cc1)N1CCc2c([nH]c3ccc(Br)cc23)C1c1ccc(C(F)(F)F)cc1 (stereo not shown) [Compound 405]
EC50 [1]: < 0.008 µM

Compound: O=C(NCC(O)CCOc1ccc([C@H]2c3[nH]c4ccc(Cl)cc4c3CCN2C(=O)Oc2ccc(Cl)cc2)cc1)c1ccncc1 (stereo partly shown) [Compound 1627]
EC50 [3]: < 0.008 µM

Compound: COc1cc(C2c3[nH]c4ccc(Cl)cc4c3CCN2C(=O)Oc2ccccc2)ccc1OCCCn1cncn1 (stereo not shown) [Compound 1150]
EC50 [1]: 0.008 to 0.04 µM

Compound: CN(C)CCN(C)CCCOc1ccc([C@H]2c3[nH]c4ccc(Cl)cc4c3CCN2C(=O)Oc2ccc(Cl)cc2)cc1 [Compound 1611]
EC50 [2]: < 0.008 µM

Compound: COc1ccc(OC(=O)N2CCc3c([nH]c4ccc(Cl)cc34)C2c2ccc(OCCCn3cncn3)cc2)cc1 (stereo not shown) [Compound 888]
EC50 [1]: < 0.008 µM

Compound: CN1CCN(Cc2cnc(Oc3ccc([C@H]4c5[nH]c6ccc(Cl)cc6c5CCN4C(=O)Oc4ccc(Cl)cc4)cc3)s2)CC1 [Compound 1661]
EC50 [2]: < 0.008 µM

Compound: COc1ccc(OC(=O)N2CCc3c([nH]c4ccc(Cl)cc34)C2c2ccc(OCC3CCCN(C)C3)cc2)cc1 (stereo not shown) [Compound 981]
EC50 [2]: 0.04 to 0.2 µM

Compound: O=C(COc1ccc(C2c3[nH]c4ccc(Cl)cc4c3CCN2C(=O)Oc2ccccc2)cc1)Oc1ccccc1 (stereo not shown) [Compound 366]
EC50 [1]: > 1 µM

Compound: Cc1cnc(C)c(Oc2ccc([C@H]3c4[nH]c5ccc(Cl)cc5c4CCN3C(=O)Oc3ccc(Cl)cc3)cc2)n1 [Compound 1658]
EC50 [3]: < 0.008 µM

Compound: O=C(Oc1ccc(Cl)cc1)N1CCc2c([nH]c3ccc(Cl)cc23)[C@@H]1c1ccc(OC2OC(CO)C(O)C(O)C2O)cc1 (stereo partly shown) [Compound 1695]
EC50 [3]: 0.2 to 1 µM

Compound: CC1(C)OC[C@H](CCOc2ccc(C3c4[nH]c5ccc(Cl)cc5c4CCN3C(=O)Oc3ccc(F)cc3)cc2)O1 (stereo partly shown) [Compound 1169]
EC50 [1]: < 0.008 µM

Compound: C=CCOc1ccc(C2c3[nH]c4ccc(Cl)cc4c3CCN2C(=O)Oc2ccc(Cl)cc2)cc1 (stereo not shown) [Compound 999]
EC50 [1]: < 0.008 µM

Compound: CCN1CCN(C(=O)COc2ccc(C3c4[nH]c5ccc(Cl)cc5c4CCN3C(=O)Oc3ccc(OC)cc3)cc2)CC1 (stereo not shown) [Compound 1028]
EC50 [2]: 0.04 to 0.2 µM

Compound: CC(C)S(=O)(=O)NCC(O)COc1ccc(C2c3[nH]c4ccc(Cl)cc4c3CCN2C(=O)Oc2ccc(Cl)cc2)cc1 (stereo not shown) [Compound 1566]
EC50 [3]: 0.04 to 0.2 µM

Compound: O=C(Oc1ccc(Cl)cc1)N1CCc2c([nH]c3ccc(Cl)cc23)C1c1ccc(OCCCOCCN2CCOCC2)cc1 (stereo not shown) [Compound 1555]
EC50 [2]: < 0.008 µM

Compound: O=C(Oc1ccc(Cl)cc1)N1CCc2c([nH]c3ccc(Cl)cc23)[C@H]1c1ccc(OCCCCl)cc1 [Compound 1126]
EC50 [1]: 0.2 to 1 µM

Compound: CC(=O)OCC1OC(n2cc(COc3ccc([C@H]4c5[nH]c6ccc(Cl)cc6c5CCN4C(=O)Oc4ccc(Cl)cc4)cc3)nn2)C(OC(C)=O)C(OC(C)=O)C1OC(C)=O (stereo partly shown) [Compound 1675]
EC50 [3]: 0.04 to 0.2 µM

EC50 [1]: < 0.008 µM
Compound: CC1(C)OC[C@@H](COc2ccc([C@H]3c4[nH]c5ccc(Cl)cc5c4CCN3C(=O)Oc3ccc(Cl)cc3)cc2)O1 [Compound 1260]

Compound: NC(=O)c1cn(CCOc2ccc(C3c4[nH]c5ccc(Cl)cc5c4CCN3C(=O)Oc3ccc(F)cc3)cc2)nc1N (stereo not shown) [Compound 1416]
EC50 [3]: 0.04 to 0.2 µM

Compound: O=C(NCC(O)CCOc1ccc([C@H]2c3[nH]c4ccc(Cl)cc4c3CCN2C(=O)Oc2ccc(Cl)cc2)cc1)c1cccnc1 (stereo partly shown) [Compound 1628]
EC50 [3]: < 0.008 µM

Compound: C=CCOc1ccc(C2c3[nH]c4ccc(Cl)cc4c3CCN2C(=O)Oc2ccc(F)cc2)cc1 (stereo not shown) [Compound 409]
EC50 [1]: < 0.008 µM

Compound: O=C(Oc1ccc(Cl)cc1)N1CCc2c([nH]c3ccc(Cl)cc23)[C@@H]1c1ccc(OC2CCN(c3ncccn3)CC2)cc1 [Compound 1681]
EC50 [3]: < 0.008 µM

Compound: C#CCOc1ccc([C@H]2c3[nH]c4ccc(Cl)cc4c3CCN2C(=O)Oc2ccc(Cl)cc2)cc1 [Compound 1612]
EC50 [3]: < 0.008 µM

Compound: CC(C)c1ccc(C2c3[nH]c4ccc(Br)cc4c3CCN2C(=O)Oc2ccc(Cl)cc2)cc1 (stereo not shown) [Compound 572]
EC50 (HeLa cells, hypoxic conditions (1% O2), 24-48 hours, VEGF in conditioned media, read-out: ELISA EC50): < 0.008 µM

Compound: O=C(Oc1ccc(Cl)cc1)N1CCc2c([nH]c3ccc(Cl)cc23)[C@@H]1c1ccc(OCCC(O)Cn2cncn2)cc1 (stereo partly shown) [Compound 1282]
EC50 [1]: < 0.008 µM

Compound: COc1cc(C2c3[nH]c4ccc(Cl)cc4c3CCN2C(=O)Oc2ccc(Cl)cc2)ccc1OCCCN1CCOCC1 (stereo not shown) [Compound 1093]
EC50 [2]: 0.008 to 0.04 µM

Compound: O=C(Oc1ccc(Cl)cc1)N1CCc2c([nH]c3ccc(Cl)cc23)[C@@H]1c1ccc(Oc2cnccn2)cc1 [Compound 1571]
EC50 [3]: < 0.008 µM

Compound: COc1ccc(C2c3[nH]c4ccc(Cl)cc4c3CCN2C(=O)Oc2ccc(F)cc2)cc1 (stereo not shown) [Compound 401]
EC50 [1]: < 0.008 µM

Compound: COC(=O)c1ccc(C2c3[nH]c4ccc(Br)cc4c3CCN2C(=O)Oc2ccccc2Cl)cc1 (stereo not shown) [Compound 593]
EC50 [1]: 0.008 to 0.04 µM

Compound: CC(=O)N1CCN(CCCOc2ccc(C3c4[nH]c5ccc(Cl)cc5c4CCN3C(=O)Oc3ccc(Cl)cc3)cc2)CC1 (stereo not shown) [Compound 903]
EC50 [2]: < 0.008 µM

Compound: O=C(Oc1ccc(Cl)cc1)N1CCc2c([nH]c3ccc(Cl)cc23)[C@@H]1c1ccc(Oc2ncccn2)cc1 [Compound 1570]
EC50 [3]: < 0.008 µM

Compound: COc1ccc(C2c3[nH]c4ccc(Cl)cc4c3CCN2C(=O)Oc2ccccc2)cc1 (stereo not shown) [Compound 60]
EC50 [1]: 0.008 to 0.04 µM

Compound: COCCOCCOc1ccc(C2c3[nH]c4ccc(Cl)cc4c3CCN2C(=O)Oc2ccccc2)cc1 (stereo not shown) [Compound 670]
EC50 [1]: < 0.008 µM

Compound: O=C(Oc1ccc(Cl)cc1)N1CCc2c([nH]c3ccc(Cl)cc23)[C@@H]1c1ccc(OCCC(O)CNS(=O)(=O)C2CC2)cc1 (stereo partly shown) [Compound 1639]
EC50 [3]: < 0.008 µM
